Patent US20230150953A1, “SUBSTITUTED ISOPHTHALIC ACID DIAMIDES” (Bayer Aktiengesellschaft, priority 2020, published 2023)

Assays:
Type in all cases: in vivo
AVEFA Avena fatua = assay: Post-emergence herbicidal action against harmful plants; conditions: one-leaf stage, assessed visually after about 3 weeks vs untreated controls
Text: (§1) The abbreviations used for the harmful plants mean: • ABUTH Abutilon theophrasti ALOMY Alopecurus myosuroides • AVEFA Avena fatua AMARE Amaranthus retroflexus • CYPES Cyperus esculentus DIGSA Digitaria sanguinalis • ECHCG Echinochloa crus-galli HORMU Hordeum murinum • LOLMU Lolium multiflorum LOLRI Lolium rigidum • MATIN Matricaria inodora PHBPU Pharbitis purpurea • POLCO Polygonum convolvulus SETVI Setaria viridis • STEME Stellaria media VERPE Veronica persica • VIOTR Viola tricolor 2. Post-Emergence Herbicidal Action Against Harmful Plants Seeds of monocotyledonous and dicotyledonous weed and crop plants are laid out in sandy loam soil in wood-fiber pots, covered with soil and cultivated in a greenhouse under good growth conditions. 2 to 3 weeks after sowing, the test plants are treated at the one-leaf stage. The compounds of the invention, formulated in the form of wettable powders (WP) or as emulsion concentrates (EC), are then sprayed onto the green parts of the plants in the form of an aqueous suspension or emulsion at a water application rate equivalent to 600 to 800 l/ha, with addition of 0.2% wetting agent. After the test plants have been left to stand in the greenhouse under optimal growth conditions for about 3 weeks, the action of the preparations is assessed visually in comparison to untreated controls (herbicidal action in percent (%): 100% activity=the plants have died, 0% activity=like control plants). […] The tables below illustrate, in an illustrative manner, the post-emergence herbicidal action of the compounds of the invention, the herbicidal activity being stated in percent.

PHBPU Pharbitis purpurea [1] = assay: as above; conditions: 20 g/ha, one-leaf stage, assessed visually after about 3 weeks vs untreated controls
Text: as §1

[2] = test system: POLCO Polygonum convolvulus; assay: as above; conditions: one-leaf stage, assessed visually after about 3 weeks vs untreated controls
Text: as §1

[3] = test system: AMARE Amaranthus retroflexus; assay: as above; conditions: one-leaf stage, assessed visually after about 3 weeks vs untreated controls
Text: as §1

[4] = test system: DIGSA Digitaria sanguinalis; assay: as above; conditions: one-leaf stage, assessed visually after about 3 weeks vs untreated controls
Text: as §1

[5] = test system: ALOMY Alopecurus myosuroides; assay: as above; conditions: one-leaf stage, assessed visually after about 3 weeks vs untreated controls
Text: as §1

SETVI Setaria viridis [6] = assay: as above; conditions: one-leaf stage, assessed visually after about 3 weeks vs untreated controls
Text: as §1

MATIN Matricaria inodora [7] = assay: Pre-emergence herbicidal action against harmful plants; conditions: scored visually after 3 weeks vs untreated controls
Text: (§2) The abbreviations used for the harmful plants mean: • ABUTH Abutilon theophrasti ALOMY Alopecurus myosuroides • AVEFA Avena fatua AMARE Amaranthus retroflexus • CYPES Cyperus esculentus DIGSA Digitaria sanguinalis • ECHCG Echinochloa crus-galli HORMU Hordeum murinum • LOLMU Lolium multiflorum LOLRI Lolium rigidum • MATIN Matricaria inodora PHBPU Pharbitis purpurea • POLCO Polygonum convolvulus SETVI Setaria viridis • STEME Stellaria media VERPE Veronica persica • VIOTR Viola tricolor 1. Pre-Emergence Herbicidal Action Against Harmful Plants Seeds of monocotyledonous and dicotyledonous weed plants and crop plants are laid out in sandy loam soil in wood-fiber pots and covered with soil. The compounds of the invention, formulated in the form of wettable powders (WP) or as emulsion concentrates (EC), are then applied to the surface of the covering soil in the form of an aqueous suspension or emulsion at a water application rate equivalent to 600 to 800 l/ha, with addition of 0.2% wetting agent. After the treatment, the pots are placed in a greenhouse and kept under good growth conditions for the trial plants. The damage to the test plants is scored visually after a test period of 3 weeks by comparison with untreated controls (herbicidal activity in percent (%): 100% activity=the plants have died, 0% activity=like control plants). […] The tables below illustrate, in an illustrative manner, the post-emergence herbicidal action of the compounds of the invention, the herbicidal activity being stated in percent.

PHBPU Pharbitis purpurea [8] = assay: as above; conditions: 80 g/ha, scored visually after 3 weeks vs untreated controls
Text: as §2

[9] = test system: ECHCG Echinochloa crus-galli; assay: as above; conditions: scored visually after 3 weeks vs untreated controls
Text: as §2

[10] = test system: POLCO Polygonum convolvulus; assay: as above; conditions: 80 g/ha, scored visually after 3 weeks vs untreated controls
Text: as §2

[11] = test system: ABUTH Abutilon theophrasti; assay: as above; conditions: 80 g/ha, scored visually after 3 weeks vs untreated controls
Text: as §2

[12] = test system: AMARE Amaranthus retroflexus; assay: as above; conditions: scored visually after 3 weeks vs untreated controls
Text: as §2

[13] = test system: DIGSA Digitaria sanguinalis; assay: as above; conditions: scored visually after 3 weeks vs untreated controls
Text: as §2

[14] = test system: ALOMY Alopecurus myosuroides; assay: as above; conditions: 80 g/ha, scored visually after 3 weeks vs untreated controls
Text: as §2

SETVI Setaria viridis [15] = assay: as above; conditions: 80 g/ha, scored visually after 3 weeks vs untreated controls
Text: as §2

VERPE Veronica persica = assay: Post-emergence herbicidal action against harmful plants; conditions: one-leaf stage, assessed visually after about 3 weeks vs untreated controls
Text: as §1

MATIN Matricaria inodora [16] = assay: as above; conditions: one-leaf stage, assessed visually after about 3 weeks vs untreated controls
Text: as §1

[17] = test system: ABUTH Abutilon theophrasti; assay: as above; conditions: one-leaf stage, assessed visually after about 3 weeks vs untreated controls
Text: as §1

For `Cc1c(C(=O)Nc2nnnn2C)cc(Cl)c(C(F)(F)F)c1C(=O)NC1CC1` [Example 1-85], the “Post-emergence action at 20 g/ha against AVEFA in %” value (AVEFA Avena fatua) was 80%, the “Post-emergence action at 20 g/ha against PHBPU in %” value (PHBPU Pharbitis purpurea [1]) was 80% and the “Post-emergence action at 20 g/ha against POLCO in %” value [2] was 80%. The “Post-emergence action at 20 g/ha against AMARE in %” value [3] was 80%, the “Post-emergence action at 20 g/ha against DIGSA in %” value [4] was 90% and the “Post-emergence action at 20 g/ha against ALOMY in %” value [5] was 80%. The “Post-emergence action at 20 g/ha against SETVI in %” value (SETVI Setaria viridis [6]) was 80%, the “Pre-emergence action at 20 g/ha against MATIN in %” value (MATIN Matricaria inodora [7]) was 80% and the “Pre-emergence action at 80 g/ha against MATIN in %” value (MATIN Matricaria inodora [7]) was 100%. For the same compound, the “Pre-emergence action at 80 g/ha against PHBPU in %” value (PHBPU Pharbitis purpurea [8]) was 80%, the “Pre-emergence action at 80 g/ha against ECHCG in %” value [9] was 80% and the “Pre-emergence action at 80 g/ha against POLCO in %” value [10] was 80%. For the same compound, the “Pre-emergence action at 80 g/ha against ABUTH in %” value [11] was 100%, the “Pre-emergence action at 20 g/ha against AMARE in %” value [12] was 100% and the “Pre-emergence action at 80 g/ha against AMARE in %” value [12] was 100%. For the same compound, the “Pre-emergence action at 20 g/ha against DIGSA in %” value [13] was 100%, the “Pre-emergence action at 80 g/ha against DIGSA in %” value [13] was 100% and the “Pre-emergence action at 80 g/ha against ALOMY in %” value [14] was 80%. The “Pre-emergence action at 80 g/ha against SETVI in %” value (SETVI Setaria viridis [15]) was 100%.
In the case of `CCN(C)C(=O)c1c(C(F)(F)F)cc(F)c(C(=O)Nc2nnnn2CC)c1C` [Example 2-96], the “Post-emergence action at 20 g/ha against VERPE in %” value (VERPE Veronica persica) was 80%, the “Post-emergence action at 20 g/ha against MATIN in %” value (MATIN Matricaria inodora [16]) was 80% and the “Post-emergence action at 20 g/ha against PHBPU in %” value (PHBPU Pharbitis purpurea [1]) was 90%. The “Post-emergence action at 20 g/ha against ABUTH in %” value [17] was 80%, the “Post-emergence action at 5 g/ha against AMARE in %” value ([3]; 5 g/ha) was 80% and the “Post-emergence action at 20 g/ha against AMARE in %” value [3] was 90%. For the same compound, the “Post-emergence action at 20 g/ha against DIGSA in %” value [4] was 90%, the “Pre-emergence action at 20 g/ha against MATIN in %” value (MATIN Matricaria inodora [7]) was 80% and the “Pre-emergence action at 80 g/ha against MATIN in %” value (MATIN Matricaria inodora [7]) was 90%. The “Pre-emergence action at 80 g/ha against PHBPU in %” value (PHBPU Pharbitis purpurea [8]) was 80%, the “Pre-emergence action at 80 g/ha against ECHCG in %” value [9] was 80% and the “Pre-emergence action at 80 g/ha against POLCO in %” value [10] was 80%. For the same compound, the “Pre-emergence action at 80 g/ha against ABUTH in %” value [11] was 90%, the “Pre-emergence action at 20 g/ha against AMARE in %” value [12] was 100% and the “Pre-emergence action at 80 g/ha against AMARE in %” value [12] was 100%. The “Pre-emergence action at 20 g/ha against DIGSA in %” value [13] was 80%, the “Pre-emergence action at 80 g/ha against DIGSA in %” value [13] was 90% and the “Pre-emergence action at 80 g/ha against ALOMY in %” value [14] was 80%.
